# Source: PubChem BioAssay (NCI)
#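 Assay format: 96-well plates, 48-hour exposure. TGI denotes the concentration required for complete inhibition of growth.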
# System: PC-3 prostate
# Assay: NCI anticancer screen, dose series, 48 h
row,SMILES,TGI [µM]
1,COc1cccc(OC)c1/C=C1\OC(=O)c2cccc(OC)c21,> 100

# System: DMS 273 small cell lung
# Assay: NCI anticancer screen, dose series, 48 h
row,SMILES,TGI [µM]
1,Cc1cn2c(=O)c3ccccc3nc2s1,> 100

# System: NCI-H226 lung
# Assay: NCI anticancer screen, dose series, 48 h
row,SMILES,TGI [µM]
1,Cc1cn2c(=O)c3ccccc3nc2s1,> 100
2,O=C(CC(c1ccccc1)N1CCCCC1)c1ccccc1 (stereo not given),37.4
3,O=C(c1ccccc1)c1c(-c2ccccc2)[nH]n(-c2ccc([N+](=O)[O-])cc2)c(=O)c1=O,> 100
4,CCN(CC)CCn1nc(N)c2nc3cc(Cl)ccc3nc21,> 100
5,Cc1ccc(S(=O)(=O)C2=Cc3ccc(C(F)(F)F)cc3C2(O)c2cccc(C(F)(F)F)c2)cc1 (stereo not given),4.26
6,Nc1nc(Cl)cc(NCCO)n1,> 100
7,COc1cccc(OC)c1/C=C1\OC(=O)c2cccc(OC)c21,> 29.5

# System: HOP-92 NSCLC
# Assay: NCI anticancer screen, dose series, 48 h
row,SMILES,TGI [µM]
1,Cc1cn2c(=O)c3ccccc3nc2s1,> 100
2,O=C(CC(c1ccccc1)N1CCCCC1)c1ccccc1 (stereo not given),32.7
3,O=C(c1ccccc1)c1c(-c2ccccc2)[nH]n(-c2ccc([N+](=O)[O-])cc2)c(=O)c1=O,50.9
4,CCN(CC)CCn1nc(N)c2nc3cc(Cl)ccc3nc21,> 100
5,Cc1ccc(S(=O)(=O)C2=Cc3ccc(C(F)(F)F)cc3C2(O)c2cccc(C(F)(F)F)c2)cc1 (stereo not given),4.17
6,Nc1nc(Cl)cc(NCCO)n1,> 100
7,COc1cccc(OC)c1/C=C1\OC(=O)c2cccc(OC)c21,> 63

# System: OVCAR-3 ovarian
# Assay: NCI anticancer screen, dose series, 48 h
row,SMILES,TGI [µM]
1,Cc1cn2c(=O)c3ccccc3nc2s1,> 100
2,O=C(CC(c1ccccc1)N1CCCCC1)c1ccccc1 (stereo not given),23.9
3,O=C(c1ccccc1)c1c(-c2ccccc2)[nH]n(-c2ccc([N+](=O)[O-])cc2)c(=O)c1=O,> 100
4,Cc1ccc(S(=O)(=O)C2=Cc3ccc(C(F)(F)F)cc3C2(O)c2cccc(C(F)(F)F)c2)cc1 (stereo not given),3.01
5,Nc1nc(Cl)cc(NCCO)n1,> 100
6,COc1cccc(OC)c1/C=C1\OC(=O)c2cccc(OC)c21,13.5

# System: SNB-75 CNS
# Assay: NCI anticancer screen, dose series, 48 h
row,SMILES,TGI [µM]
1,Cc1cn2c(=O)c3ccccc3nc2s1,> 100
2,O=C(CC(c1ccccc1)N1CCCCC1)c1ccccc1 (stereo not given),31.4
3,Cc1ccc(S(=O)(=O)C2=Cc3ccc(C(F)(F)F)cc3C2(O)c2cccc(C(F)(F)F)c2)cc1 (stereo not given),13.9
4,Nc1nc(Cl)cc(NCCO)n1,> 100
5,COc1cccc(OC)c1/C=C1\OC(=O)c2cccc(OC)c21,17.9

# System: TK-10 renal
# Assay: NCI anticancer screen, dose series, 48 h
row,SMILES,TGI [µM]
1,Cc1cn2c(=O)c3ccccc3nc2s1,> 100
2,O=C(CC(c1ccccc1)N1CCCCC1)c1ccccc1 (stereo not given),27.3
3,O=C(c1ccccc1)c1c(-c2ccccc2)[nH]n(-c2ccc([N+](=O)[O-])cc2)c(=O)c1=O,> 100
4,CCN(CC)CCn1nc(N)c2nc3cc(Cl)ccc3nc21,> 100
5,Cc1ccc(S(=O)(=O)C2=Cc3ccc(C(F)(F)F)cc3C2(O)c2cccc(C(F)(F)F)c2)cc1 (stereo not given),5.96
6,Nc1nc(Cl)cc(NCCO)n1,> 100
7,COc1cccc(OC)c1/C=C1\OC(=O)c2cccc(OC)c21,> 100

# System: COLO 205 colon
# Assay: NCI anticancer screen, dose series, 48 h
row,SMILES,TGI [µM]
1,Cc1cn2c(=O)c3ccccc3nc2s1,> 100
2,O=C(CC(c1ccccc1)N1CCCCC1)c1ccccc1 (stereo not given),37.9
3,O=C(c1ccccc1)c1c(-c2ccccc2)[nH]n(-c2ccc([N+](=O)[O-])cc2)c(=O)c1=O,> 100
4,CCN(CC)CCn1nc(N)c2nc3cc(Cl)ccc3nc21,> 100
5,Cc1ccc(S(=O)(=O)C2=Cc3ccc(C(F)(F)F)cc3C2(O)c2cccc(C(F)(F)F)c2)cc1 (stereo not given),3.43
6,Nc1nc(Cl)cc(NCCO)n1,> 100
7,COc1cccc(OC)c1/C=C1\OC(=O)c2cccc(OC)c21,30.9

# System: SK-OV-3 ovarian
# Assay: NCI anticancer screen, dose series, 48 h
row,SMILES,TGI [µM]
1,Cc1cn2c(=O)c3ccccc3nc2s1,> 100
2,O=C(CC(c1ccccc1)N1CCCCC1)c1ccccc1 (stereo not given),31.4
3,O=C(c1ccccc1)c1c(-c2ccccc2)[nH]n(-c2ccc([N+](=O)[O-])cc2)c(=O)c1=O,> 100
4,CCN(CC)CCn1nc(N)c2nc3cc(Cl)ccc3nc21,> 100
5,Cc1ccc(S(=O)(=O)C2=Cc3ccc(C(F)(F)F)cc3C2(O)c2cccc(C(F)(F)F)c2)cc1 (stereo not given),28.2
6,Nc1nc(Cl)cc(NCCO)n1,> 100
7,COc1cccc(OC)c1/C=C1\OC(=O)c2cccc(OC)c21,> 100

# System: SNB-78 CNS
# Assay: NCI anticancer screen, dose series, 48 h
row,SMILES,TGI [µM]
1,Cc1cn2c(=O)c3ccccc3nc2s1,> 100

# System: KM12 colon
# Assay: NCI anticancer screen, dose series, 48 h
row,SMILES,TGI [µM]
1,Cc1cn2c(=O)c3ccccc3nc2s1,> 100
